Laboratory results published in paper PMC3070159 (Journal of medicinal chemistry, 2010).

Target: T1, human sEH (Homo sapiens, UniProt P34913)
T1 sequence (P34913 1-555): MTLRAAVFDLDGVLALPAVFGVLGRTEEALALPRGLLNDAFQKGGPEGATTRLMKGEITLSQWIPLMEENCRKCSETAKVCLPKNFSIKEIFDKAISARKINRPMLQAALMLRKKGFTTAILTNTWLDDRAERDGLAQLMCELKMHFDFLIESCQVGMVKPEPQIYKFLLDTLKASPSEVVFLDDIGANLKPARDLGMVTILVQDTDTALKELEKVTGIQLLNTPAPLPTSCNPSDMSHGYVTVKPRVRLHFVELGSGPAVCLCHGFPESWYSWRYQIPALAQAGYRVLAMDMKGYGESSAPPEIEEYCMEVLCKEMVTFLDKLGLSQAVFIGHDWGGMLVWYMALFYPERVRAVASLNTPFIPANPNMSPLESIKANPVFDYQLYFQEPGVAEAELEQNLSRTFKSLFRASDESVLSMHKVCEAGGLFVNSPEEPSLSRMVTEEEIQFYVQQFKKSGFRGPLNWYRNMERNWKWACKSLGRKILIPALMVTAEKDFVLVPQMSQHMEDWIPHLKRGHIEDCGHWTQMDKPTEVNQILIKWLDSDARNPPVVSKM
Experiment: fluorescent substrate
Format: biochemical

## CC(C)(C)OC(=O)N1CCN(CCCCOc2ccccc2NC(=O)NC23CC4CC(CC(C4)C2)C3)CC1 [Compound 21a]
  change fold: 191

## CC(=O)N1CCN(CCCOc2ccc(NC(=O)NC34CC5CC(CC(C5)C3)C4)cc2)CC1 [Compound 28c, 1-(4-(3-(4-acetylpiperazin-1-yl)propoxy)phenyl)-3-adamantan-1-ylurea]
Human sEH IC50 ratio
  fold increase in potency relative to N4-methyl substituted analog 16c: 5.4 fold
  fold increase in potency relative to N4-unsubstituted analog 24c: 47.2 fold

## CC(=O)N1CCN(CCCCOc2ccc(NC(=O)NC34CC5CC(CC(C5)C3)C4)cc2)CC1 [Compound 29c, 1-(4-(4-(4-acetylpiperazin-1-yl)butoxy)phenyl)-3-adamantan-1-yl urea]
  change fold: −2.9
